Some test systems named below: SW-620 colon; SK-OV-3 ovarian; SR leukemia; IGROV1 ovarian; MALME-3M melanoma; PC-3 prostate; SF-268 CNS; SN12C renal; NCI-H522 lung; SF-295 CNS.
Test in all cases: DTP human tumour cell line panel, 48 h

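Exposure lasted 48 hours, with cells grown in 96-well plates and compounds tested at five concentrations. GI50: concentration for 50% inhibition of growth. TGI marks complete inhibition of growth.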

Results on nine compounds are retold here after PubChem BioAssay (NCI).

One may read the GI50 as the concentration that inhibits growth by half. The term TGI denotes the concentration at which net growth stops. A higher TGI goes with lower sensitivity of the cells.

`O=C(/C=C/C12c3ccccc3C(c3ccccc31)C1C(=O)NC(=O)C12)c1ccccc1` (stereo unspecified): the GI50 in the assay on SW-620 colon was 1.92 µM; with SK-OV-3 ovarian, 2.37 µM; in the assay on SR leukemia, 1.57 µM; in the assay with IGROV1 ovarian, 2.03 µM; in the assay on MALME-3M melanoma, 1.64 µM; in the assay on PC-3 prostate, 1.62 µM. Further, the figures for the GI50 in the assay with SF-268 CNS, in the assay on SN12C renal and in the assay with NCI-H522 lung were 2.17 µM, 2.29 µM and 1.8 µM, respectively. In addition, the TGI came to 4.93 µM in the assay with SW-620 colon; 5.2 µM in the assay on SK-OV-3 ovarian; 17.6 µM in the assay with SR leukemia; 4.52 µM in the assay with IGROV1 ovarian; 3.15 µM in the assay on MALME-3M melanoma; 3.45 µM in the assay with PC-3 prostate. Also, the concentration for total growth inhibition (TGI) with SF-268 CNS turned out to be 6.55 µM; in the assay on SN12C renal, 6.91 µM; with NCI-H522 lung, 3.69 µM.
As to `O=c1[nH]c(=O)n(C2CC(O)C(CO)O2)cc1C(F)(F)F` (stereo unspecified), the GI50 was 9.78 µM with SW-620 colon; 10.1 µM in the assay with SK-OV-3 ovarian; 1.02 µM with SR leukemia; 9.02 µM in the assay with IGROV1 ovarian; 2.79 µM with SF-295 CNS; above 49.9 µM with MALME-3M melanoma. The GI50 was above 100 µM in the assay on PC-3 prostate, 3.14 µM in the assay on SF-268 CNS, 3.8 µM with SN12C renal and 18.3 µM with NCI-H522 lung. In addition, the TGI in the assay with SW-620 colon, in the assay on SK-OV-3 ovarian, in the assay with SR leukemia, in the assay on IGROV1 ovarian, with SF-295 CNS and in the assay on MALME-3M melanoma was above 100 µM each time. Moreover, the TGI in the assay on PC-3 prostate, in the assay with SF-268 CNS, in the assay with SN12C renal and in the assay on NCI-H522 lung was above 100 µM throughout.
`CN(C)CCCNc1nc2ccccc2c2[nH]c3ccccc3c12`: the GI50 was 0.387 µM with SW-620 colon; 1.49 µM with SK-OV-3 ovarian; 0.616 µM with SR leukemia; 1.39 µM with IGROV1 ovarian; 0.972 µM with SF-295 CNS; 0.897 µM with PC-3 prostate. Further, the GI50 with SF-268 CNS was 1.39 µM; in the assay on SN12C renal, 0.639 µM; with NCI-H522 lung, 1.32 µM. Further, the TGI in the assay on SW-620 colon was determined as 7.21 µM; in the assay with SK-OV-3 ovarian it was 6.11 µM; with SR leukemia it was 50 µM; in the assay on IGROV1 ovarian it was 18.4 µM; in the assay on SF-295 CNS, 3.11 µM; in the assay on PC-3 prostate, 2.97 µM. For the same compound, the TGI in the assay on SF-268 CNS worked out at 4.1 µM; in the assay with SN12C renal, 2.26 µM; in the assay on NCI-H522 lung, 11.1 µM.
On to `CO/N=C(\COc1ccc2oc(-c3ccccc3)cc(=O)c2c1)c1ccc(F)cc1`, for which the GI50 was 30.3 µM in the assay with SW-620 colon; 20 µM in the assay with SK-OV-3 ovarian; 15.7 µM in the assay on SR leukemia; 15.2 µM with IGROV1 ovarian; above 100 µM with SF-295 CNS; 30.3 µM in the assay on MALME-3M melanoma. Also, the figures for the GI50 with PC-3 prostate, with SN12C renal and with NCI-H522 lung were 22.6 µM, 16.9 µM and 15.4 µM, respectively. Besides, the TGI is above 100 µM in the assay with SW-620 colon; 44.8 µM in the assay with SK-OV-3 ovarian; above 100 µM in the assay with SR leukemia; 35.9 µM in the assay on IGROV1 ovarian; above 100 µM in the assay with SF-295 CNS; 67.1 µM with MALME-3M melanoma. In addition, the TGI came out at 57.3 µM with PC-3 prostate, 35 µM in the assay on SN12C renal and 40.5 µM in the assay with NCI-H522 lung.
On to `COC(=O)N[C@H]1CCc2c(Cl)c(OC)c(OC)c(OC)c2-c2ccc(SC)c(=O)cc21`, for which the GI50 in the assay on SW-620 colon, in the assay with SK-OV-3 ovarian, in the assay on SR leukemia, with IGROV1 ovarian, with MALME-3M melanoma and in the assay with PC-3 prostate was below 0.01 µM in each case. Further, the GI50 with SF-268 CNS, in the assay with SN12C renal and in the assay on NCI-H522 lung was below 0.01 µM in each case. Also, the TGI was above 100 µM with SW-620 colon; above 100 µM with SK-OV-3 ovarian; above 66.6 µM in the assay with SR leukemia; above 52.5 µM in the assay with IGROV1 ovarian; 30.5 µM in the assay with MALME-3M melanoma; above 70.3 µM in the assay on PC-3 prostate. In addition, the figures for the TGI in the assay on SF-268 CNS, with SN12C renal and in the assay on NCI-H522 lung were above 100 µM, above 43.9 µM and 20.3 µM, respectively.
Turning to `Nc1ccc(/C=C/c2ccc3cccnc3c2)cc1`, the TGI in the assay with SW-620 colon, with SK-OV-3 ovarian, in the assay with SR leukemia, in the assay on SF-295 CNS, in the assay with MALME-3M melanoma and in the assay on PC-3 prostate was above 100 µM in each case. Besides, the TGI in the assay with SF-268 CNS and in the assay on SN12C renal was above 100 µM each time.
In the case of `COc1cc(/C=C2\CCCC3=C2N=C2SC(C)=NN2C3c2cc(OC)c(OC)c(OC)c2)cc(OC)c1OC` (stereo unspecified), the GI50 in the assay on SW-620 colon is 0.41 µM; with SK-OV-3 ovarian it was above 100 µM; with SR leukemia, 0.347 µM; in the assay with MALME-3M melanoma it was above 100 µM; in the assay on PC-3 prostate it was above 100 µM. For the same compound, the total growth inhibition concentration (TGI) in the assay on SW-620 colon, in the assay on SK-OV-3 ovarian, in the assay on SR leukemia, with MALME-3M melanoma and in the assay with PC-3 prostate was above 100 µM in each case.
Consider `N#Cc1cccc(C2C3=C(COC3=O)N(CCO)c3cc4c(cc32)OCO4)c1` (stereo unspecified), for which the GI50 in the assay on SW-620 colon was 1.53 µM; in the assay with SK-OV-3 ovarian, 2.08 µM; with SR leukemia it was 0.313 µM; in the assay with IGROV1 ovarian, 8.08 µM; in the assay on SF-295 CNS, 1.17 µM; in the assay on PC-3 prostate it was 1.62 µM. The GI50 in the assay on SF-268 CNS is 3.99 µM; with SN12C renal, 3.81 µM; with NCI-H522 lung, 0.561 µM. Moreover, the TGI in the assay on SW-620 colon, with SK-OV-3 ovarian, in the assay with SR leukemia, with IGROV1 ovarian, in the assay with SF-295 CNS and in the assay with PC-3 prostate was above 50 µM each time. For the same compound, the TGI with SF-268 CNS is above 50 µM; with SN12C renal, above 50 µM; in the assay on NCI-H522 lung, 4.7 µM.
With `N#Cc1cc(S(=O)(=O)Nc2nc3ccccc3o2)c(SCc2ccccc2)cc1Cl`, the GI50 with SW-620 colon is 17.9 µM; with SR leukemia, 76.5 µM; in the assay with IGROV1 ovarian, 22 µM; in the assay on SF-295 CNS, 27.2 µM; with MALME-3M melanoma it was 34.5 µM; in the assay on PC-3 prostate it was 21.4 µM. In addition, the results for the GI50 with SF-268 CNS, in the assay on SN12C renal and in the assay with NCI-H522 lung were 31.7 µM, 24.7 µM and 17 µM, respectively. Moreover, the TGI in the assay on SW-620 colon is 35.5 µM; with SR leukemia, above 100 µM; with IGROV1 ovarian, 54.8 µM; in the assay on SF-295 CNS, 65.8 µM; with MALME-3M melanoma, 69.9 µM; in the assay on PC-3 prostate, 43.4 µM. The TGI is above 100 µM in the assay with SF-268 CNS, 57.9 µM in the assay on SN12C renal and 40.4 µM in the assay with NCI-H522 lung.
